The target in this test is T1, EP4 receptor (Homo sapiens, UniProt P35408).
T1 construct: expressed in transfected cells; membranes prepared by differential centrifugation
Kind of test: Prostanoid receptor binding assay (EP4), membranes of transfected HEK 293(ebna) cells. As to conditions: representative data, read-out: Potency in Binding Assay. On the procedure: Prostanoid receptor cDNAs corresponding to full length coding sequences are subcloned into the appropriate sites of mammalian expression vectors and transfected into HEK 293(ebna) cells. HEK 293(ebna) cells expressing the individual cDNAs are grown under selection and individual colonies are isolated after 2-3 weeks of growth using the cloning ring method and subsequently expanded into clonal cell lines.
Transfected HEK 293(ebna) cells are maintained in culture, harvested and membranes are prepared by differential centrifugation, following lysis of the cells in the presence of protease inhibitors, for use in receptor binding assays. Prostanoid receptor binding assays (for DP1, DP2 (CRTH2), EP 1, EP2, EP3-11, EP4, FP, IP, and TP) are performed in 10 mM MES/KOH (pH 6.0) (EPs, FP and TP) or 10 mM HEPES/KOH (pH 7.4) (DPs and IP), containing 1 mM EDTA, 2.5-30 mM divalent cation and the appropriate radioligand. Synthetic compounds are added in dimethylsulfoxide which is kept constant at 1% (v/v) in all incubations. The reaction is initiated by addition of membrane protein. Non-specific binding is determined in the presence of 10 μM of the corresponding non-radioactive prostanoid. Incubations are conducted for 60-90 min at room temperature or 30° C. and terminated by rapid filtration. Specific binding is calculated by subtracting non specific binding from total binding. The residual specific binding at each ligand concentration is calculated and expressed as a function of ligand concentration in order to construct sigmoidal concentration-response curves. The binding affinity of the compounds is determined by calculating the equilibrium inhibition constant (Ki) from the equation Ki=InPt/1+[radioligand]/Kd where Kd is the equilibrium dissociation constant for the radioligand:receptor interaction and InPt is the inflection point of the dose-response curves.

T1 sequence (P35408 whole entry): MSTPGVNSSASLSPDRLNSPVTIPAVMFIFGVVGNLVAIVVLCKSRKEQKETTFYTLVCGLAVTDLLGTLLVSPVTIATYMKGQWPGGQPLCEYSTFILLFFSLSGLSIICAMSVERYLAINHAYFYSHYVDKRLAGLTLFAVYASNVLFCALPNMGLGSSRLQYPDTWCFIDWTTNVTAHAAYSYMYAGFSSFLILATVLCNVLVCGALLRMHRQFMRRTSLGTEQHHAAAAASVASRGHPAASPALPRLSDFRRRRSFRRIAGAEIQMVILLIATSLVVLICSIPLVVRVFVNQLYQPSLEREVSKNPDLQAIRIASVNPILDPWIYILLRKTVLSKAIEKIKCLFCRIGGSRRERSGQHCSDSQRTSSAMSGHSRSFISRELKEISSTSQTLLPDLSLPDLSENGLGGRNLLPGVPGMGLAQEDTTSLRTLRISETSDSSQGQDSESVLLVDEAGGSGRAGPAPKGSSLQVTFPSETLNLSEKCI

Turning to `CCOc1c2c(c(OCC)c3ncccc13)CN(c1ccc(CS(=O)(=O)NC(=O)Cc3ccccc3OC)cc1C)C2=O` [Example 1, N-{[4-(5,9-diethoxy-6-oxo-6,8-dihydro-7H-pyrrolo[3,4-g]quinolin-7-yl)-3-methylbenzyl]sulfonyl}-2-(2-methoxyphenyl)acetamide], the IC50 turned out to be 470 pM.

As for `CCOc1c2c(c(OCC)c3ncccc13)CN(c1ccc(CS(=O)(=O)NC(=O)Cc3ccccc3C(F)(F)F)cc1C)C2=O` [Example 7, N-{[4-(5,9-diethoxy-6-oxo-6,8-dihydro-7H-pyrrolo[3,4-g]quinolin-7-yl)-3-methylbenzyl]sulfonyl}-2-[2-(trifluoromethyl)phenyl]acetamide], the IC50 amounted to 420 pM.

Turning to `CCOc1c2c(c(OCC)c3ncccc13)CN(c1ccc(CS(=O)(=O)NC(=O)Cc3cccc4ccccc34)cc1C)C2=O` [Example 19, N-{[4-(5,9-diethoxy-6-oxo-6,8-dihydro-7H-pyrrolo[3,4-g]quinolin-7-yl)-3-methylbenzyl]sulfonyl}-2-(1-naphthyl)acetamide], the IC50 is 720 pM.

Regarding `COc1cccc(OC)c1C1(C(=O)NS(=O)(=O)Cc2ccc(N3Cc4c(c(OCC(F)(F)F)c5cccnc5c4OCC(F)(F)F)C3=O)c(C)c2)CC1` [Example 33, (1-(2,6-dimethoxyphenyl)-N-({3-methyl-4-[6-oxo-5,9-bis(2,2,2-trifluoroethoxy)-6,8-dihydro-7H-pyrrolo[3,4-g]quinolin-7-yl]benzyl}sulfonyl)cyclopropanecarboxamide)], the IC50 turned out to be 830 pM.

Consider `CCOc1c2c(c(OCC)c3ncccc13)CN(c1ccc(CS(=O)(=O)NC(=O)C3(c4ccc(Cl)cc4Cl)CC3)cc1C)C2=O` [Example 39, 1-(2,4-dichlorophenyl)-N-{[4-(5,9-diethoxy-6-oxo-6,8-dihydro-7H-pyrrolo[3,4-g]quinolin-7-yl)-3-methylbenzyl]sulfonyl}cyclopropane-carboxamide], for which the IC50 was determined as 760 pM.

As to `COc1cccc(OC)c1C1(C(=O)NS(=O)(=O)Cc2ccc(N3Cc4c(c(OCC(F)(F)F)c5cccnc5c4OCC(F)(F)F)C3=O)c(Cl)c2)CC1` [Example 63, N-({3-chloro-4-[6-oxo-5,9-bis(2,2,2-trifluoroethoxy)-6,8-dihydro-7H-pyrrolo[3,4-g]quinolin-7-yl]benzyl}sulfonyl)-1-(2,6-dimethoxyphenyl)cyclopropane-carboxamide], the IC50 was 610 pM.

The values are drawn from patent US8013159B2, “Quinoline derivatives as EP4 antagonists” (Merck Canada Inc., priority 2005, dated 2011).
